Earlier results as cited in PMC4646457 (PLoS ONE, 2015).

Settings: refractory advanced or metastatic breast cancer; ref ZM2006/00137/00 (EGF100151); cited from earlier work

For `CCCCCOC(=O)Nc1nc(=O)n([C@@H]2O[C@H](C)[C@@H](O)[C@H]2O)cc1F` [capecitabine], the “median time to progression” value is listed as 18.6 weeks.
